From US5912270A, “Anti-inflammatory compounds” (SmithKline Beecham Corporation, priority 1996, dated 1999)
Counter-ions that a name gives are not always drawn. Like-named read-outs stand apart in the source and are kept apart here.

How the values were obtained:
[1] = tested on: TPA-induced Mouse Ear Inflammation; experiment: Assay (g): TPA-induced Mouse Ear Inflammation (edema and MPO); type: in vivo; conditions: for MPO ED50 / edema ED50: TPA ear model; for MPO ED50 / edema ED50 / TPA % change in edema / change in MPO for TPA model: topical; for TPA % change in edema / change in MPO for TPA model: doses of 0.2, 0.1 and 0.3 for dexamethasone, scalaradial, WY 50,295 respectively
Method: (§1) Male Balb/c inbred mice were obtained from Charle River Breeding Laboratories (Kingston, N.Y.). Within a single experiment mice (22-25 g) were age-matched. These in vivo experiments typically involved use of 5-6 animals/group.
TPA (12-0-tetradecanoylphorbol 13-acetate) (Sigma Chemical Company) in acetone (4 mg/20 ml) was applied to the inner and outer surfaces of the left ear of BALB/c male mice. The thickness of both ears was then measured with a dial micrometer (Mitutoyo, Japan) at both 2 and 4 hours after treatment, and the data expressed as the change in thickness (10^-3 cm) between treated and untreated ears. […] After measuring the edema, the inflammed left ears were removed and stored at -70° C. until they were assayed for MPO (myeloperoxidase) activity where appropriate.
On the day of the assay, partially thawed ear tissues were minced and then homogenized (10% w/v) with a Tissumizer homogenizer (Tekmar Co.) in 50 mM phosphate buffer (pH 6) containing 0.5% HTAB. The tissue homogenates were taken through three cycles of freeze-thaw, followed by brief sonication (10 sec). The method of Bradley et al. was used with modifications as described. […] Supernatant MPO activity was quantified kinetically (change in absorbance measured over 3 min, sampled at 15-sec intervals) using a Beckman DU-7 spectrophotometer and a Kinetics Analysis package (Beckman Instruments, Inc.). One unit of MPO activity is defined as that degrading one micromole of peroxide per minute at 25° C.
Statistical analysis was done using Student's "t" test.

[2] = tested on: Arachidonic acid induced ear inflammation; experiment: Assay (h): Arachidonic acid induced ear inflammation assay; type: in vivo, mouse; conditions: for activity in the AA ear model: @ 1 mg; for AA % change in edema / change in MPO for AA: topical, doses of 0.2, 0.1 and 0.3 for dexamethasone, scalaradial, WY 50,295 respectively
Method: as §1
Arachidonic acid is dissolved in acetone ([…]) to the left ear of BALB/c male mice. The thickness of both ears was measured with a constant pressure thickness guage 1 hour after treatment and the data expressed as the change in thickness between treated and untreated ears. Test compounds or vehicle are given at the time of AA applciation. The inflammatory cell infiltration is measured by MPO activity as described above in the TPA ear edema assay. After the edema measurements are made, the inflamed ears are removed and assayed for MPO activity.

CoA-IT = experiment: Assay (b): microsomal CoA-IT activity assay; type: biochemical, human; conditions: U937 microsomes
From the text: The following is a method to measure CoA-IT activity and the effects of compounds on CoA-IT activity. The assay is based upon mixing cellular material containing CoA-IT activity with a stable lyso phospholipid such as […] and measuring the production of phospholipid product such as […] occurring in the absence of added CoA or CoA-fatty acids.
Any inflammatory cell that contains high levels of CoA-IT activity can be used, such as neutrophils, macrophages or cell lines such as U937 cells. […] Cells were grown without differentiation (basal state) by any agent, such as dimethyl sulfoxide. As used herein, "inflammatory cells" include, but are not limited to neutrophils, macrophages, monocytes, lymphocytes, eosinophils, basophils, and mast cells.
Microsomes were prepared using standard techniques. In this case, cells were washed with a buffer of 250 mM sucrose, 10 mM Tris, 1 mM EGTA, 1 mM MgCl2, pH 7.4 and ruptured by N2 cavitation (750 psi, 10 minutes). The ruptured cells were centrifuged 1000×g, 5 minutes. The resulting supernatant was centrifuged at 20,000×g,~20 minutes. Microsomes were prepared from this supernatant by centrifugation at 100,000×g, 60 minutes. The resulting pellet was washed once with assay buffer (150 mM NaCl, 10 mM Na2 KPO4, 1 mM EGTA, pH 7.4), recentrifuged and the pellet resuspended in assay buffer (4-20 mg protein/ml) and was stored at -80° C. until assayed.
CoA-IT activity was measured in 1.5 ml centrifuge tubes in a total volume of 100 ul. Microsomes were diluted in assay buffer to the desired protein concentration (6-20 ug/tube). The reaction was initiated by addition of [3H ]1-alkyl-2-lyso-sn-glycero-3-phosphocholine (GPC) (~0.1 uCi/tube) and 1 μM final cold 1-alkyl-2-lyso-GPC in assay buffer with 0.25 mg/ml fatty acid-poor bovine serumalbumin (BSA) (Calbiochem, La Jolla, Calif.). [3H]1-2-alkyl-2-lyso-GPC, approximately 50 Ci/mmol, was from NEN-Dupont (Boston, Mass.) and cold 1-alkyl-2-lyso-GPC was from Biomol (Plymouth Meeting, Pa). Microsomes were pretreated with desired agents for the desired time (10 minutes) before the addition of [3H]1-alkyl-2-lyso-GPC. The reaction was run for the desired time (10 minutes) at 37° C. The reaction was stopped and the lipids extracted by addition of 100 ul of chloroform:methanol (1:2, v/v) followed by 100 ul of chloroform and 100 ul of 1M KCI. The samples were vortexed and centrifuged at high speed in a microfuge for 2-3 minutes. An aliquot of the chloroform-extracted materials were separated, usually by TLC in chloroform/methanol/acetic acid/water (50:25:8:4, v/v), visualized by radioscanning (Bioscan) and the product, [3H] 1-alkyl-2-acyl-GPC, was scraped and quantified by liquid scintillation spectroscopy. […] Other methods can be used to separate substrate from product, including but not limited to column chromatography, affinity chromatography and post reaction derivitization.

human Monocytes = experiment: Assay (f): stimulated eicosanoid release by human monocytes; type: cell-based; conditions: Monocyte
Method: Human Monocyte Isolation. Leukocyte-rich leukopaks obtained from Biological Specialties (Lansdale, Pa.) were collected from male volunteers who were not talking antiinflammatory drugs. Leukopaks were centrifuged (90×g for 15 min) twice to remove the platelet-rich plasma. The cell pellet was washed by centrifugation and resuspended in HBSS without Ca^2+ or Mg^2+. Histopaque 1077 was layered under the cell suspension and centrifuged at 400×g for 30 min to obtain the buffy coat. The interfacial buffy coat, containing monocytes and lymphocytes, was removed and saved. The buffy coat was washed twice with HBSS without Ca^2+ or Mg^2+ by centrifugation. […]
Measurement of Stimuli-Induced Eicosanoid Release. […] (A23187, 1 μM,(15 min). The reaction was terminated by reduction of pH through addition of citric acid and centrifugation (10 min, 400×g, 4° C.). Cell viability was monitored before and after experiments using trypan blue exclusion. The cell-free media was decanted and stored at -70° C. until analyzed. Prostaglandin E2 and LTC4 were directly measured in cell-free media using enzyme immunoassay (EIA) kits purchased from Caymen Chemical Co. (Ann Arbor, Mich.). Sample or standard dilutions were made with appropriate media and analyzed in triplicate. Results were obtained by extrapolation from a standard curve prepared in the media and expressed as pg or ng/ml of sample.

`CCC(C)(C)c1ccc(Oc2ccc(C(F)(F)F)cc2NC(=O)Nc2ccc(Cl)c(C(F)(F)F)c2)c(S(=O)(=O)O)c1` [Example 3, 2-[2-[3-(4-Chloro-3-trifluoromethylphenyl)ureido]-4-trifluoromethylphenoxy]-5-(1,1-dimethylpropyl)benzenesulfonic acid, sodium salt] was tested, and the “MPO ED50” value [1] was 0.36 mg/ear, the “edema ED50” value [1] was 0.32 mg/ear and the “activity in the AA ear model” value [2] was -22.
`CC(C(=O)O)c1ccc2cc(OCc3ccc4ccccc4n3)ccc2c1` (centres unmarked) [WY 50,295] was tested, and the “TPA % change in edema” value [1] was -18%, the “change in MPO for TPA model” value [1] was -36 and the “AA % change in edema” value [2] was -50%. For the same compound, the “change in MPO for AA” value [2] was -90.
In the case of `COc1ccc2cc([C@H](C)C(=O)O)ccc2c1` [naproxen], the “effect on CoA-IT activity” value (CoA-IT; at concentrations up to 100 μM) is reported as “no effect”.
For `CN(C)CCC=C1c2ccccc2COc2ccccc21` [Doxepine], the “effect on CoA-IT activity” value (CoA-IT; at concentrations up to 100 μM) was “did not inhibit”.
With `Fc1ccc(-c2nc3n(c2-c2ccncc2)CCS3)cc1` [6-(4'-Fluorophenyl)-5-(4pyridyl)-2,3-dihydroimidzo-[2,1-b]thiazole] the “effect on CoA-IT activity” value (CoA-IT; at concentrations up to 100 μM) was “no effect”.
`CC(=O)O[C@H]1C[C@@H]2[C@@]3(C)CCCC(C)(C)[C@@H]3CC[C@@]2(C)[C@@H]2CC=C(C=O)[C@H](C=O)[C@@]12C` [scalaradial] was tested, and the “TPA % change in edema” value [1] was -46%, the “change in MPO for TPA model” value [1] was -65 and the “AA % change in edema” value [2] was -11%. The “change in MPO for AA” value [2] was -33.
With `COc1cccc2c1cc([N+](=O)[O-])c1c(C(=O)O)cc3c(c12)OCO3` [aristolochic acid] the “effect on CoA-IT activity” value (CoA-IT; at concentrations up to 500 μM) was “no effect”.
For `Cc1cc(C(C)(C)C)c(O)c(C(C)(C)C)c1` [BHT], the “effect on CoA-IT activity” value (CoA-IT; at concentrations up to 100 μM) was “no effect”.
In the case of `C[C@@H]1C[C@H]2[C@@H]3CCC4=CC(=O)C=C[C@]4(C)[C@@]3(F)[C@@H](O)C[C@]2(C)[C@@]1(O)C(=O)CO` [dexamethasone], the “TPA % change in edema” value [1] is reported as -50%, the “change in MPO for TPA model” value [1] is reported as -54 and the “AA % change in edema” value [2] is reported as -10%. The “change in MPO for AA” value [2] was 0.
With `CCN(CC)CCCC(C)Nc1c2ccc(Cl)cc2nc2ccc(OC)cc12` (centres unmarked) [quinacrine] the “effect on CoA-IT activity” value (CoA-IT; at concentrations up to 500 μM) was “no effect”.
`COc1ccc2c(c1)c(CC(=O)O)c(C)n2C(=O)c1ccc(Cl)cc1` [indomethicin] was tested, and the “effect on CoA-IT activity” value (CoA-IT; at concentrations up to 100 μM) was “no effect”.
With `CCC(C)(C)c1ccc(Oc2ccc(C(F)(F)F)cc2NC(=O)Nc2cc(C(F)(F)F)cc(C(F)(F)F)c2)c(S(=O)(=O)O)c1` [Example 2, 2-[2-[3-[3,5-Bis(trifluoromethyl)phenyl]ureido]-4-trifluoromethylphenoxy]5-(1,1-dimethylpropyl)benzenesulfonic acid, sodium salt] the IC50 (human Monocytes; LTC4 release, A23187, read-out: LTC4 (as an IC50)) was 1 µM, the IC50 (human Monocytes; PGE2 release, A23187, read-out: PGE2 (as an IC50)) was > 10 µM and the “MPO ED50” value [1] was 0.25 mg/ear. For the same compound, the “edema ED50” value [1] was 0.87 mg/ear, the “inhibition in these animal models” value ([1]; mouse ear inflammation models (TPA and AA)) was “positive inhibition” and the “activity in the AA ear model” value [2] was -25.
For `O=S1(=O)CCn2c1nc(-c1ccc(F)cc1)c2-c1ccncc1` [6-(4'-Fluorophenyl)-5-(4-pyridyl)2,3-dihydroimidzo-[2,1-b]thiazole-dioxide], the “effect on CoA-IT activity” value (CoA-IT; at concentrations up to 100 μM) was “no effect”.
